We go through seven molecules from ChEMBL document CHEMBL1909570, “Synthesis and antibacterial activity of N4-mono alkyl derivatives of novel glycopeptide LYV07ww01” (2011).

In brackets after ≈: the same amount, converted by molar mass.

What all share (type): functional
Assay [1] relates to Staphylococcus aureus. As to the kind of experiment: Antibacterial activity against Staphylococcus aureus 26003 by CLSI agar microdilution method.
The test system of assay [2] is Streptococcus pneumoniae. Nature of the assay: Antibacterial activity against Streptococcus pneumoniae 31002 by CLSI agar microdilution method.
Assay [3] relates to Staphylococcus. Nature of the assay: Antibacterial activity against Staphylococcus albus 26101 by CLSI agar microdilution method.
In assay [4] the test system is Enterococcus faecium. As to the kind of experiment: Antibacterial activity against Enterococcus faecium 32220 by CLSI agar microdilution method.
The test system of assay [5] is Streptococcus. Nature of the assay: Antibacterial activity against Streptococcus gamma 32206 by CLSI agar microdilution method.
In assay [6] the test system is Staphylococcus epidermidis. Nature of the assay: Antibacterial activity against Staphylococcus epidermidis 26069 by CLSI agar microdilution method.
Assay [7] relates to Staphylococcus aureus. As to the kind of experiment: microbe, parasite or virus in culture. The conditions noted are these: ATCC 25923.
Description: Antibacterial activity against methicillin-sensitive Staphylococcus aureus ATCC 25923 by CLSI agar microdilution method
Assay [8] has as its system Staphylococcus aureus. Nature of the assay: microbe, parasite or virus in culture. The conditions noted are these: ATCC 33591.
Description: Antibacterial activity against methicillin-resistant Staphylococcus aureus ATCC 33591 by CLSI agar microdilution method
In assay [9] the test system is Enterococcus faecalis. Nature of the assay: microbe, parasite or virus in culture. The conditions noted are these: ATCC 29212.
Description: Antibacterial activity against vancomycin-sensitive Enterococcus faecalis ATCC 29212 by CLSI agar microdilution method
Assay [10] concerns Enterococcus faecalis. Nature of the assay: microbe, parasite or virus in culture. The conditions noted are these: ATCC 51299.
Assay [11] concerns Enterococcus faecium. Nature of the assay: Antibacterial activity against vancomycin-sensitive Enterococcus faecium ATCC 35667 by CLSI agar microdilution method.
For assay [12], the system named is Enterococcus faecium. As to the kind of experiment: Antibacterial activity against vancomycin-resistant Enterococcus faecium MEFA 0039 by CLSI agar microdilution method.
Assay [13] concerns Streptococcus pneumoniae. Nature of the assay: Antibacterial activity against penicillin-intermediate Streptococcus pneumoniae ATCC 49619 by CLSI broth microdilution method. On the technique in general: Broth dilution looks for growth in wells or tubes with falling amounts of substance.
For assay [14], the system named is Streptococcus pneumoniae. Nature of the assay: Antibacterial activity against penicillin-resistant Streptococcus pneumoniae MSPN 0003 by CLSI broth microdilution method.
Assay [15] has as its system Enterococcus faecium. As to the kind of experiment: Antibacterial activity against vancomycin-sensitive Enterococcus faecium ATCC 35667 by CLSI agar microdilution method relative to LYV07ww01.
The test system of assay [16] is Enterococcus faecalis. Nature of the assay: Antibacterial activity against vancomycin-resistant Enterococcus faecalis ATCC 51299 by CLSI agar microdilution method relative to vancomycin.
Assay [17] relates to Enterococcus faecium. Nature of the assay: Antibacterial activity against vancomycin-resistant Enterococcus faecium MEFA 0039 by CLSI agar microdilution method relative to vancomycin.

For `CN[C@H](CC(C)C)C(=O)N[C@H]1C(=O)N[C@@H](CC(N)=O)C(=O)N[C@H]2C(=O)N[C@H]3C(=O)N[C@H](C(=O)N[C@@H](C(=O)O)c4cc(O)cc(O)c4-c4cc3ccc4O)[C@H](O[C@H]3C[C@](C)(N)[C@H](O)[C@H](C)O3)c3ccc(c(Cl)c3)Oc3cc2cc(c3O[C@@H]2O[C@H](CO)[C@@H](O)[C@H](O)[C@H]2O[C@H]2C[C@](C)(NCc3cccc(Br)c3)[C@H](O)[C@H](C)O2)Oc2ccc(cc2Cl)[C@H]1O`, the MIC was 0.78 µg/mL (≈ 0.443 µM) in assay [1]; 0.78 µg/mL (≈ 0.443 µM) in assay [2]; 0.78 µg/mL (≈ 0.443 µM) in assay [3]; 0.78 µg/mL (≈ 0.443 µM) in assay [4]; 3.13 µg/mL (≈ 1.78 µM) in assay [5]; greater than 25 µg/mL in assay [6]. Moreover, the MIC in assay [7] is 1 µg/mL (≈ 0.568 µM); in assay [8], 0.5 µg/mL (≈ 0.284 µM); in assay [9], 0.25 µg/mL (≈ 0.142 µM); in assay [10] it was 0.5 µg/mL (≈ 0.284 µM); in assay [11], no more than 0.031 µg/mL; in assay [12], 2 µg/mL (≈ 1.14 µM). The MIC in assay [13] and in assay [14] was no more than 0.031 µg/mL in each case. Also, the “fold change (FC)” value in [15] and in assay [16] was 4 in each case.
In the case of `CN[C@H](CC(C)C)C(=O)N[C@H]1C(=O)N[C@@H](CC(N)=O)C(=O)N[C@H]2C(=O)N[C@H]3C(=O)N[C@H](C(=O)N[C@@H](C(=O)O)c4cc(O)cc(O)c4-c4cc3ccc4O)[C@H](O[C@H]3C[C@](C)(N)[C@H](O)[C@H](C)O3)c3ccc(c(Cl)c3)Oc3cc2cc(c3O[C@@H]2O[C@H](CO)[C@@H](O)[C@H](O)[C@H]2O[C@H]2C[C@](C)(NCc3ccc(C(C)C)cc3)[C@H](O)[C@H](C)O2)Oc2ccc(cc2Cl)[C@H]1O`, the MIC was 1.56 µg/mL (≈ 0.905 µM) in assay [1]; 0.78 µg/mL (≈ 0.452 µM) in [2]; 1.56 µg/mL (≈ 0.905 µM) in [3]; 1.56 µg/mL (≈ 0.905 µM) in assay [4]; 1.56 µg/mL (≈ 0.905 µM) in assay [5]; 6.25 µg/mL (≈ 3.62 µM) in assay [6]. Besides, the MIC in assay [7] was 1 µg/mL (≈ 0.58 µM); in assay [8], 0.5 µg/mL (≈ 0.29 µM); in [9], 0.5 µg/mL (≈ 0.29 µM); in assay [10], 0.5 µg/mL (≈ 0.29 µM); in [11], no more than 0.031 µg/mL; in assay [12], 2 µg/mL (≈ 1.16 µM). Besides, the MIC in assay [13] and in assay [14] was no more than 0.031 µg/mL each time. The “fold change (FC)” value in assay [15] and in [16] was 4 in each case.
Take `CN[C@H](CC(C)C)C(=O)N[C@H]1C(=O)N[C@@H](CC(N)=O)C(=O)N[C@H]2C(=O)N[C@H]3C(=O)N[C@H](C(=O)N[C@@H](C(=O)O)c4cc(O)cc(O)c4-c4cc3ccc4O)[C@H](O[C@H]3C[C@](C)(N)[C@H](O)[C@H](C)O3)c3ccc(c(Cl)c3)Oc3cc2cc(c3O[C@@H]2O[C@H](CO)[C@@H](O)[C@H](O)[C@H]2O[C@H]2C[C@](C)(NCc3ccc(Br)cc3)[C@H](O)[C@H](C)O2)Oc2ccc(cc2Cl)[C@H]1O`: the MIC in assay [1] amounted to 1.56 µg/mL (≈ 0.886 µM); in assay [2], 1.56 µg/mL (≈ 0.886 µM); in [3] it was 1.56 µg/mL (≈ 0.886 µM); in assay [4], 1.56 µg/mL (≈ 0.886 µM); in [5] it was 6.25 µg/mL (≈ 3.55 µM); in [6], 6.25 µg/mL (≈ 3.55 µM). In addition, the MIC in assay [7] was 1 µg/mL (≈ 0.568 µM); in assay [8], 0.5 µg/mL (≈ 0.284 µM); in assay [9], 0.5 µg/mL (≈ 0.284 µM); in [10], 0.5 µg/mL (≈ 0.284 µM); in [11], no more than 0.031 µg/mL; in assay [12], 2 µg/mL (≈ 1.14 µM). Also, the MIC in assay [13] and in [14] was no more than 0.031 µg/mL in each case. Also, the “fold change (FC)” value in [15] and in [16] was 4 in each case.
For the molecule `CN[C@H](CC(C)C)C(=O)N[C@H]1C(=O)N[C@@H](CC(N)=O)C(=O)N[C@H]2C(=O)N[C@H]3C(=O)N[C@H](C(=O)N[C@@H](C(=O)O)c4cc(O)cc(O)c4-c4cc3ccc4O)[C@H](O[C@H]3C[C@](C)(N)[C@H](O)[C@H](C)O3)c3ccc(c(Cl)c3)Oc3cc2cc(c3O[C@@H]2O[C@H](CO)[C@@H](O)[C@H](O)[C@H]2O[C@H]2C[C@](C)(NCc3ccccc3Br)[C@H](O)[C@H](C)O2)Oc2ccc(cc2Cl)[C@H]1O`, the MIC is 1.56 µg/mL (≈ 0.886 µM) in assay [1]; 0.195 µg/mL (≈ 0.111 µM) in assay [2]; 1.56 µg/mL (≈ 0.886 µM) in [3]; 1.56 µg/mL (≈ 0.886 µM) in assay [4]; 0.39 µg/mL (≈ 0.221 µM) in [5]; greater than 25 µg/mL in assay [6]. The MIC in [7] amounted to 1 µg/mL (≈ 0.568 µM); in assay [8] it was 0.5 µg/mL (≈ 0.284 µM); in [9], 0.25 µg/mL (≈ 0.142 µM); in assay [10], 0.5 µg/mL (≈ 0.284 µM); in [11], 0.125 µg/mL (≈ 0.071 µM); in assay [12], 4 µg/mL (≈ 2.27 µM). The values for the MIC in assay [13] and in [14] were no more than 0.031 µg/mL and 0.063 µg/mL (≈ 0.0358 µM), respectively. The “fold change (FC)” value in [17] and in assay [16] was 4 each time.
In the case of `CN[C@H](CC(C)C)C(=O)N[C@H]1C(=O)N[C@@H](CC(N)=O)C(=O)N[C@H]2C(=O)N[C@H]3C(=O)N[C@H](C(=O)N[C@@H](C(=O)O)c4cc(O)cc(O)c4-c4cc3ccc4O)[C@H](O[C@H]3C[C@](C)(N)[C@H](O)[C@H](C)O3)c3ccc(c(Cl)c3)Oc3cc2cc(c3O[C@@H]2O[C@H](CO)[C@@H](O)[C@H](O)[C@H]2O[C@H]2C[C@](C)(NCc3ccccc3Cl)[C@H](O)[C@H](C)O2)Oc2ccc(cc2Cl)[C@H]1O`, the MIC is 1.56 µg/mL (≈ 0.909 µM) in assay [1]; 0.78 µg/mL (≈ 0.454 µM) in [2]; 3.13 µg/mL (≈ 1.82 µM) in assay [3]; 1.56 µg/mL (≈ 0.909 µM) in assay [4]; 1.56 µg/mL (≈ 0.909 µM) in [5]; 6.25 µg/mL (≈ 3.64 µM) in assay [6]. The MIC was 1 µg/mL (≈ 0.582 µM) in [7]; 0.5 µg/mL (≈ 0.291 µM) in [8]; 0.5 µg/mL (≈ 0.291 µM) in assay [9]; 0.5 µg/mL (≈ 0.291 µM) in assay [10]; 0.25 µg/mL (≈ 0.146 µM) in assay [11]; 8 µg/mL (≈ 4.66 µM) in [12]. Besides, the MIC was no more than 0.031 µg/mL in [13] and 0.125 µg/mL (≈ 0.0728 µM) in assay [14]. In addition, the “fold change (FC)” value in assay [17] and in assay [16] was 4 in each case.
For the molecule `CN[C@H](CC(C)C)C(=O)N[C@H]1C(=O)N[C@@H](CC(N)=O)C(=O)N[C@H]2C(=O)N[C@H]3C(=O)N[C@H](C(=O)N[C@@H](C(=O)O)c4cc(O)cc(O)c4-c4cc3ccc4O)[C@H](O[C@H]3C[C@](C)(N)[C@H](O)[C@H](C)O3)c3ccc(c(Cl)c3)Oc3cc2cc(c3O[C@@H]2O[C@H](CO)[C@@H](O)[C@H](O)[C@H]2O[C@H]2C[C@](C)(NCc3ccc(OC)cc3)[C@H](O)[C@H](C)O2)Oc2ccc(cc2Cl)[C@H]1O`, the MIC was 0.78 µg/mL (≈ 0.455 µM) in assay [1]; 0.78 µg/mL (≈ 0.455 µM) in assay [2]; 1.56 µg/mL (≈ 0.911 µM) in assay [3]; 1.56 µg/mL (≈ 0.911 µM) in [4]; 1.56 µg/mL (≈ 0.911 µM) in assay [5]; 3.13 µg/mL (≈ 1.83 µM) in assay [6]. The MIC came out at 1 µg/mL (≈ 0.584 µM) in [7]; 0.5 µg/mL (≈ 0.292 µM) in assay [8]; 0.5 µg/mL (≈ 0.292 µM) in [9]; 0.5 µg/mL (≈ 0.292 µM) in assay [10]; 0.125 µg/mL (≈ 0.073 µM) in [11]; 4 µg/mL (≈ 2.34 µM) in assay [12]. Further, the values for the MIC in assay [13] and in assay [14] were 0.063 µg/mL (≈ 0.0368 µM) and 0.125 µg/mL (≈ 0.073 µM), respectively. Also, the “fold change (FC)” value in [17] and in [16] was 4 throughout.
For the molecule `CCCCN[C@@]1(C)C[C@H](O[C@H]2[C@H](Oc3c4cc5cc3Oc3ccc(cc3Cl)[C@@H](O[C@H]3C[C@](C)(N)[C@H](O)[C@H](C)O3)[C@@H]3NC(=O)[C@H](NC(=O)[C@@H]5NC(=O)[C@H](CC(N)=O)NC(=O)[C@H](NC(=O)[C@@H](CC(C)C)NC)[C@H](O)c5ccc(c(Cl)c5)O4)c4ccc(O)c(c4)-c4c(O)cc(O)cc4[C@H](C(=O)O)NC3=O)O[C@H](CO)[C@@H](O)[C@@H]2O)O[C@@H](C)[C@H]1O`, the MIC in assay [1] is 0.78 µg/mL (≈ 0.473 µM); in assay [2] it was 0.39 µg/mL (≈ 0.237 µM); in assay [3] it was 1.56 µg/mL (≈ 0.946 µM); in assay [4] it was greater than 25 µg/mL; in [5], 1.56 µg/mL (≈ 0.946 µM); in assay [6], greater than 25 µg/mL. In addition, the MIC stood at 0.5 µg/mL (≈ 0.303 µM) in assay [7]; 0.5 µg/mL (≈ 0.303 µM) in assay [8]; 0.5 µg/mL (≈ 0.303 µM) in assay [9]; 1 µg/mL (≈ 0.607 µM) in assay [10]; 0.25 µg/mL (≈ 0.152 µM) in [11]; 32 µg/mL (≈ 19.4 µM) in assay [12]. The MIC was found to be 0.063 µg/mL (≈ 0.0382 µM) in assay [13] and 0.125 µg/mL (≈ 0.0758 µM) in [14].
